Laboratory results: US4556737A, “Sulfonium compounds, processes for preparing the compounds and pharmacological composiitons containing the same” (Taiho Pharmaceutical Company Limited, priority 1983, dated 1985)

Tests used:
[1] = test system: passive cutaneous anaphylaxis (PCA); test: Effect on passive cutaneous anaphylaxis (PCA); type: in vivo, male Wister rats; conditions: 1 hour prior to antigen challenge, rat
Description: (1) Effect on passive cutaneous anaphylaxis (PCA)
A serum containing the homocytotropic antibody was intracutaneously injected at four points of the shaven back of the male Wister rats weighing 180 to 200 g. Fourty-eight hours after the injection, a physiological saline containing 2.0 mg of DNP-As and 2.5 mg of Evans Blue to induce response, and the rats were dehematized to death in 30 minutes. […] The present compounds were administered to the rats 1 hour prior to the antigen challenge.

[2] = Acute toxicity test; conditions: mouse, in vivo, ip; male ddy mice, intraperitoneal, solution in physiological saline, up-down method
Description: Male ddy mice weighing about 20 g were used. A solution of the compound in physiological saline was injected intraperitoneally. The dose lethal to 50% of mice was determined by the up-down method.

| Structure (SMILES) | LD50 [2] | inhibition in vivo at 100 mg/kg [1] | also measured |
| --- | --- | --- | --- |
| C[S+](C)CCC(=O)Nc1ccc(OCC(O)CO)cc1.Cc1ccc(S(=O)(=O)[O-])cc1 (centres unmarked) [Compound 4, 2-{4-(2,3-dihydroxypropoxy)phenylcarbamoyl}ethyldimethylsulfonium p-toluenesulfonate] | 1040 mg/kg |  | inhibition in vivo at 50 mg/kg [1]: 48.8% |
| COCC(O)COc1ccc(NC(=O)CC[S+](C)C)cc1.Cc1ccc(S(=O)(=O)[O-])cc1 (centres unmarked) [Compound 7, 2-{4-(2-hydroxy-3-methoxypropoxy)phenylcarbamoyl}ethyldimethylsulfonium p-toluenesulfonate] | 359 mg/kg | 57% |  |
| CCOCC(O)COc1ccc(NC(=O)CC[S+](C)C)cc1 (centres unmarked) [Compound 8] | 254 mg/kg |  | inhibition in vivo at 20 mg/kg [1]: 57% |
| CCCOCC(O)COc1ccc(NC(=O)CC[S+](C)C)cc1 (centres unmarked) [Compound 10] | 171 mg/kg | 47% |  |
| C[S+](C)CCC(=O)Nc1ccc(OCC(O)COC2CCCCC2)cc1 (centres unmarked) [Compound 17] | 93.6 mg/kg | 47% |  |
| C[S+](C)CCC(=O)Nc1ccc(OCC(O)COc2ccccc2)cc1 (centres unmarked) [Compound 18] | 112 mg/kg | 34% |  |
| COCC(COc1ccc(NC(=O)CC[S+](C)C)cc1)OC (centres unmarked) [Compound 19] | 254 mg/kg |  | inhibition in vivo at 10 mg/kg [1]: 51.6% |
| CCOCC(COc1ccc(NC(=O)CC[S+](C)C)cc1)OCC (centres unmarked) [Compound 20] | 179 mg/kg |  | inhibition in vivo at 50 mg/kg [1]: 35.1% |
| CCOCC(COc1ccc(NC(=O)CC[S+](C)C)cc1)OC(C)=O (centres unmarked) [Compound 25] | 233 mg/kg | 63.6% |  |
| CCCOCC(COc1ccc(NC(=O)CC[S+](C)C)cc1)OCCC (centres unmarked) [Compound 29] | 75.2 mg/kg |  | inhibition in vivo at 50 mg/kg [1]: 46.2% |
| CC(=O)OCC(COc1ccc(NC(=O)CC[S+](C)C)cc1)OC(C)=O (centres unmarked) [Compound 32] | 366 mg/kg |  | inhibition in vivo at 10 mg/kg [1]: 47% |
| C[S+](C)CCOc1ccccc1OCC(O)CO.Cc1ccc(S(=O)(=O)[O-])cc1 (centres unmarked) [Compound 40, 2-{2-(2,3-dihydroxypropoxy)phenoxy}ethyldimethylsulfonium p-toluenesulfonate] | 283 mg/kg |  | inhibition in vivo at 200 mg/kg [1]: 53.2% |
| C[S+](C)CCOc1cccc(OCC(O)CO)c1 (centres unmarked) [Compound 42] | 231 mg/kg |  | inhibition in vivo at 200 mg/kg [1]: 58.4% |
| C[S+](C)CCOc1ccc(OCC(O)CO)cc1 (centres unmarked) [Compound 44] | 352 mg/kg |  | inhibition in vivo at 200 mg/kg [1]: 57% |
| COCC(O)COc1ccc(OCC[S+](C)C)cc1.Cc1ccc(S(=O)(=O)[O-])cc1 (centres unmarked) [Compound 45, 2-{4-(2-hydroxy-3-methoxypropoxy)phenoxy}ethyldimethylsulfonium p-toluenesulfonate] | 302 mg/kg |  | inhibition in vivo at 200 mg/kg [1]: 59% |
| CCOCC(O)COc1ccc(OCC[S+](C)C)cc1 (centres unmarked) [Compound 46] |  | 64.8% |  |
| CCCOCC(O)COc1ccc(OCC[S+](C)C)cc1 (centres unmarked) [Compound 47] | 293 mg/kg |  | inhibition in vivo at 50 mg/kg [1]: 39.2% |
| CCOCCOCC(O)COc1ccc(OCC[S+](C)C)cc1 (centres unmarked) [Compound 48] | 302 mg/kg |  | inhibition in vivo at 20 mg/kg [1]: 48% |
| C[S+](C)CCOc1ccc(OCC(O)COCC2CCCO2)cc1 (centres unmarked) [Compound 49] | 221 mg/kg |  | inhibition in vivo at 20 mg/kg [1]: 42.5% |
| C[S+](C)CCOc1ccc(OCC(O)COc2ccccc2)cc1.Cc1ccc(S(=O)(=O)[O-])cc1 (centres unmarked) [Compound 51, 2-{4-(2-hydroxy-3-phenoxypropoxy)phenoxy}ethyldimethylsulfonium p-toluenesulfonate] | 150 mg/kg | 56.7% |  |
| CCOCC(COc1ccc(OCC[S+](C)C)cc1)OCC (centres unmarked) [Compound 52] | 132 mg/kg | 53.3% |  |
| C[S+](C)CCOc1ccc(OCC(O)COC(N)=O)cc1 (centres unmarked) [Compound 54] | 327 mg/kg |  | inhibition in vivo at 20 mg/kg [1]: 51.8% |
| CC(=O)OCC(COc1ccc(OCC[S+](C)C)cc1)OC(C)=O (centres unmarked) [Compound 55] | 291 mg/kg |  | inhibition in vivo at 50 mg/kg [1]: 55.2% |
| C[S+](C)CCOc1ccc(OCC(COC(=O)c2ccccc2)OC(=O)c2ccccc2)cc1 (centres unmarked) [Compound 56] | 85 mg/kg | 44.7% |  |
